In data set [1] the target is T1, RAC1 (Homo sapiens, UniProt P63000). The following applies: compared with NSC23766.
Data set [2] has as its target T1, RAC1.
Data set [3] concerns Rac1-dependent ruffle formation in NIH3T3 cells. As to the kind of experiment: Rac activator-induced membrane ruffling (actin staining) in fibroblasts. It is filed as cell-based. The note with it: fibroblasts, dose-dependent inhibition. The method, then:
(§1) Cell culture, transfection and actin staining. NIH3T3 cells grew up in DMEM (Gibco; Invitrogen) containing 10% foetal bovine serum, 100 units/mL penicillin and 100 μg/mL streptomycin at 37° C. and 5% CO2. The culture medium was changed every 72 hours.
After treatments, fibroblasts were fixed with 4% paraformaldehyde in PBS, permeabilized in PBS 0.5% Triton X-100, and incubated with 130 μg/mL of FITC-conjugated phalloidin (Sigma) to visualize F-actin. After staining, images were captured by a fluorescence microscope (Nikon). The actin cytoskeleton organization was analyzed to observe Rac1-dependent ruffle formation.

Data set [4] has as its target T2, Rac-GTP (Rac1 activity) in NIH3T3 cells (Mus musculus, UniProt P63001).
T2 construct: endogenous in cells; host or cells: NIH3T3
As to the kind of experiment: Rac activation: active Rac immunoprecipitation and immunoblot of Rac-GTP in fibroblasts stimulated by a Rac activator. It is filed as cell-based. The following applies: pre-incubated 1 h. The method, then:
as §1
Analysis of Rac1 activity. In NIH3T3 cells lysates, Rac1 activity was evaluated by active Rac immunoprecipitation using anti-Rac-GTP antibody (26903, NewEast Biosciences). The precipitated active Rac was subjected to SDS-PAGE and detected by immunoblot with anti-Rac1 antibody (BD biosciences).
Background: In western blotting, separated proteins are transferred to a membrane and probed.

For a further data set, the system named is fibroblast adhesion. Kind of data set: Cell adhesion assay using impedance technology. It is filed as cell-based. The following applies: fibroblasts, 10 μm. As to the method: Cell adhesion assay using impedance technology. Cells (10000/well) were seeded in a 96 well plate microtiter xCELLigence assay plate (E-Plate) (ACEA Biosciences Inc.) and placed on the Real-time xCELLigence Cell Analyzer (Roche Applied Science) platform at 37° C. to measure the “cell index” every 5 min for a period of 6 hours. The cell index unit is defined as (Rn−Rb)/15. Rn is the cell electrode impedance of the well when it contains cells. Rb is the background impedance of the well with the media alone.

What is called melting point is the temperature of the solid-liquid transition. The compound `COc1ccc(OC)c(NS(=O)(=O)c2ccc(NC(=O)C#C[Si](C)(C)C)cc2)c1` displayed a melting point of 84 °C.

By IC50 is commonly meant the concentration that inhibits the measured activity by half. Higher therefore signals weaker potency in that assay. Turning to `COc1ccc(NS(=O)(=O)c2ccc(NC(=O)CCSc3ccc(C)cc3)cc2)c(OC)c1` [(1), N-(4-(N-(2,4-dimethoxyphenyl)sulfamoyl)phenyl)-3-(p-tolylthio)propanamide], the “Relative activity (NSC23766)” value at RAC1 [1] is “>”. The compound also gave a half-maximal inhibitory concentration (IC50) against RAC1 [2] of 30 nM.

In turn, `COc1ccc(OC)c(NS(=O)(=O)c2ccc(NC(=O)CCCc3ccc(C)cc3)cc2)c1` [(3), N-(4-(N-(2,5-dimethoxyphenyl)sulfamoyl)phenyl)-4-(p-tolyl) butanamide] registered a melting point of 126 °C.

For `COc1ccc(OC)c(NS(=O)(=O)c2ccc(NC(=O)CSc3ccc(C)cc3)cc2)c1` [(4)], the melting point is 126 °C.

With `C=CC(=O)Nc1ccc(S(=O)(=O)Nc2cc(OC)ccc2OC)cc1` [(5), N-(4-(N-(2,5-dimethoxyphenyl)sulfamoyl)phenyl)acrylamide], the melting point turned out to be 126 °C. Also, the “Relative activity (NSC23766)” value at RAC1 [1] is given as “>”. This compound also yielded a half-inhibitory concentration (IC50) against RAC1 [2] of 0.1 nM.

Turning to `COc1ccc(OC)c(NS(=O)(=O)c2ccc(NC(=O)CCOc3ccc(C)cc3)cc2)c1` [(6), N-(4-(N-(2,5-dimethoxyphenyl)sulfamoyl)phenyl)-3-(p-tolyloxy)propanamide], the melting point was 145 °C. At RAC1 [1], the “Relative activity (NSC23766)” value was “>”. Further, the IC50 on RAC1 [2] amounted to 1 nM.

As for `COc1ccc(OC)c(NC(=O)c2ccc(NC(=O)CCSc3ccc(C)cc3)cc2)c1` [(7), N-(2,5-dimethoxyphenyl)-4-(3-(p-tolylthio)propanamido) benzamide], the melting point turned out to be 153 °C.

With `COc1ccc(OC)c(NS(=O)(=O)c2ccc(NC(=O)CCCSc3ccc(C)cc3)cc2)c1` [(8)], the melting point is 153 °C.

In the case of `COc1ccc(OC)c(NS(=O)(=O)c2ccc([N+](=O)[O-])cc2)c1` [(9), N-(2,5-dimethoxyphenyl)-4-nitrobenzenesulfonamide], the melting point came to 165 °C.

In turn, `COc1ccc(OC)c(NS(=O)(=O)c2ccc(N)cc2)c1` [(10), 4-amino-N-(2,5-dimethoxyphenyl)benzenesulfonamide] showed a melting point of 126 °C.

Compound `CCC(=O)Nc1ccc(S(=O)(=O)Nc2cc(OC)ccc2OC)cc1` [(11), N-(4-(N-(2,5-dimethoxyphenyl)sulfamoyl)phenyl) propionamide] came in with a melting point of 170 °C.

As for `C=CC(=O)Nc1ccc(S(=O)(=O)N(C(=O)C=C)c2cc(OC)ccc2OC)cc1` [(16), N-acryloyl-N′-(4-(N-(2,5-dimethoxyphenyl)sulfamoyl)phenyl) acrylamide], the melting point was 220.8 °C.

`COc1ccccc1NS(=O)(=O)c1ccc([N+](=O)[O-])cc1` [(17), N-(2-methoxyphenyl)-4-nitrobenzenesulfonamide] displayed a melting point of 156.5 °C. At RAC1 [1], the “Relative activity (NSC23766)” value was “>”. The IC50 against RAC1 [2] came to 1 nM.

Turning to `COc1ccccc1NS(=O)(=O)c1ccc(N)cc1` [(18), 4-amino-N-(2-methoxyphenyl)-benzenesulfonamide], at RAC1 [1], the “Relative activity (NSC23766)” value was “>”. The IC50 at RAC1 [2] was 1 nM.

In turn, `COc1ccccc1NS(=O)(=O)c1ccc(NC(=O)CCSc2ccc(C)cc2)cc1` [(19), N-(4-(N-(2-methoxyphenyl)sulfamoyl)phenyl)-3-(p-tolylthio) propanamide] came in with a melting point of 143.5 °C. For the same compound, the “Relative activity (NSC23766)” value on RAC1 [1] was “>”. In addition, the half-inhibitory concentration (IC50) against RAC1 [2] turned out to be 1 nM.

As for `COc1ccccc1NS(=O)(=O)c1ccc(NC(=O)CSc2ccc(C)cc2)cc1` [(20), N-(4-(N-(2-methoxyphenyl)sulfamoyl)phenyl)-2-(p-tolylthio) acetamide], the melting point was 169.3 °C. On RAC1 [1], the “Relative activity (NSC23766)” value was “>”. On RAC1 [2], this compound registered an IC50 of 1 nM.

Consider `COc1cccc(NS(=O)(=O)c2ccc([N+](=O)[O-])cc2)c1` [(21), N-(3-methoxyphenyl)-4-nitrobenzenesulfonamide], for which the melting point came out at 119.4 °C.

Take `COc1cccc(NS(=O)(=O)c2ccc(N)cc2)c1` [(22)]: at RAC1 [1], the “Relative activity (NSC23766)” value is listed as “>”. For the same compound, half-maximal inhibition on RAC1 [2] (IC50) required 1 nM.

Turning to `COc1cccc(NS(=O)(=O)c2ccc(NC(=O)CCSc3ccc(C)cc3)cc2)c1` [(23), N-(4-(N-(3-methoxyphenyl)sulfamoyl)phenyl)-3-(p-tolylthio) propanamide], the melting point was determined as 156.8 °C.

As for `COc1ccc(OC)c(NS(=O)(=O)c2ccc(NC(=O)CC[S+]([O-])c3ccc(C)cc3)cc2)c1` (stereo not drawn) [(24), N-(4-(N-(2,5-dimethoxyphenyl)sulfamoyl)phenyl)-3-(p-tolylsulfinyl)propanamide], the melting point was found to be 148.1 °C.

In turn, `COc1ccc(OC)c(NS(=O)(=O)c2ccc(NC(=O)CCS(=O)(=O)c3ccc(C)cc3)cc2)c1` [(25), N-(4-(N-(2,5-dimethoxyphenyl)sulfamoyl)phenyl)-3-tosyl-propanamide] showed a melting point of 180.3 °C.

Take `COc1ccc(OC)c(N(C)S(=O)(=O)c2ccc(NC(=O)CCSc3ccc(C)cc3)cc2)c1` [(26), N-(4-(N-(2,5-dimethoxyphenyl)-N-methylsulfamoyl)phenyl)-3-(p-tolylthio)propanamide]: the melting point came out at 48 °C.

`C#CC(=O)Nc1ccc(S(=O)(=O)Nc2cc(OC)ccc2OC)cc1` [(27), N-(4-(N-(2,5-dimethoxyphenyl)sulfamoyl)phenyl) propiolamide] showed a melting point of 200 °C.

Consider `Cc1ccc(SCCC(=O)Nc2ccc(S(=O)(=O)Nc3ccccc3F)cc2)cc1` [(30), N-(4-(N-(2-fluorophenyl)sulfamoyl)phenyl)-3-(p-tolylthio) propanamide], for which the melting point amounted to 162 °C.

Take `COc1ccc(OC)c(NS(=O)(=O)c2ccc(NC(=O)CCl)cc2)c1` [(31), 2-chloro-N-(4-(N-(2,5-dimethoxyphenyl)sulfamoyl)phenyl) acetamide]: the melting point came out at 190 °C.

As for `COc1ccc(NS(=O)(=O)c2ccc([N+](=O)[O-])cc2)c(OC)c1` [Example 1, N-(2,4-dimethoxyphenyl)-4-nitrobenzenesulfonamide], the melting point was determined as 161 °C.

In turn, `O=[N+]([O-])c1ccc(S(=O)(=O)Nc2ccccc2F)cc1` [Example 5] gave a melting point of 166 °C.

On to `COc1ccc(NS(=O)(=O)c2ccc(N)cc2)c(OC)c1` [Example 6, 4-amino-N-(2,4-dimethoxyphenyl)benzenesulfonamide], for which the melting point was 115 °C.

Take `Nc1ccc(S(=O)(=O)Nc2ccccc2F)cc1` [Example 10]: the melting point is 190 °C.

As for `CCN(CC)CCCC(C)Nc1nc(C)cc(Nc2ccc3nc(C)cc(N)c3c2)n1` (stereo not drawn) [NSC23766, reference compound], in data set [3], the IC50 came out at 2600 nM. For the same compound, the “Rac activation (Rac-GTP level) by a Rac activator” value in data set [4] is recorded as “prevented”. The “adhesion rate of the cells” value with fibroblast adhesion was “slow down”.

The values are drawn from patent US11607419B2, “Inhibitors of RAC1 and uses thereof for inducing bronchodilatation” (INSTITUT NATIONAL DE LA SANTE ET DE LA RECHERCHE MEDICALE …, priority 2017, dated 2023).
